Here are results for four molecules from US20100209536A1, “Methods and Kits for Use in the Treatment and Prevention of Diseases or Conditions of the Immune System or Infectious Diseases” (The Brigham and Women's Hospital, Inc., priority 2006, published 2010).

What all share (format): in vivo, human
Assay [1] concerns severe asthma exacerbations in childhood asthmatics. The assay is described as follows: Childhood Asthma Management Program: baseline serum 25(OH)D and outcomes in childhood asthmatics on inhaled corticosteroid. From the text:
We measured 25(OH)D levels in stored serum (collected on entry into the trial) from 305 childhood asthmatics who were randomized to the inhaled corticosteroid arm of the multi-center Childhood Asthma Management Program. We then analyzed baseline 25(OH)D levels for their association with severe asthma exacerbations (defined as emergency room visits or hospitalizations for asthma) over the course of the 4-year trial.

Assay [2] deals with recurrent wheeze in the first 2 yrs. As to the kind of experiment: Project Viva antioxidant study: maternal intake and recurrent wheeze in the first 2 yrs. The following applies: for Recurrent wheeze in the first 2 yrs, Multivariable Model OR (95% CI) / Recurrent wheeze in the first 2 yrs, Univariate Model OR (95% CI): including supplements; for Recurrent Wheeze, Foods Only OR / Recurrent Wheeze, Supplements Only OR: univariate; for Recurrent Wheeze, Foods Only OR: intake from foods only; for Recurrent Wheeze, Supplements Only OR: intake from supplements only. The text has this: (§1) Study subjects were enrolled in Project Viva, as described above. Recruitment and retention procedures have previously been published (Gillman et al., J. Pediatr. 144:240-245, 2004). We obtained information directly from participants and from medical records as detailed previously (Rifas-Shiman, Paediatr. Perinat. Epidemiol. 20:35-42, 2006). Data collected from interviews and questionnaires included demographics (infant gender, maternal marital status, and race), socioeconomic status (education and household income), and reproductive history (maternal gravidity, pre-pregnancy height and body mass index, and smoking). Questionnaires that inquired about infant health, feeding, and the home environment were administered when the child was 6 months, 1 year, and 2 years of age. Among 2,128 delivered infants in Project Viva, we excluded 228 participants because of missing first and second trimester diet assessment data and an additional 37 participants with a gestation of less than 34 completed weeks.
(§2) We assessed maternal diet using semi-quantitative food-frequency questionnaires (FFQ) validated for use during pregnancy (Fawzi et al., Ann. Epidemiol. 14:754-762, 2004), and used in several of our previous studies of maternal diet and offspring outcomes (Oken et al., Am. J. Epidemiol. 160:774-783, 2004; Huh et al., Int. J. Epidemiol. 34:378-384, 2005; Gillman et al., Circulation 110:1990-1995, 2004). As noted above, the FFQ used at the 1st visit reflected intakes in the 1st trimester; the time referent was “during this pregnancy,” that is from the date of the last menstrual period until the assessment, at an average of about 10 weeks gestation. To assess vitamin and supplement intake during the 1st trimester, we administered a separate interview that queried dose, duration, and brand/type of multivitamin, prescribed prenatal vitamins, and supplements. Also as noted above, the FFQ used at the 2nd visit (26 to 28 weeks of gestation) reflected intakes during the 2nd trimester; the time referent was “during the past 3 months.” The 2nd trimester instrument was the same as that for the 1st trimester except that we assessed use of vitamins/supplements as part of the self-completed FFQ.
(§3) To calculate intake of nutrients, we again used the Harvard nutrient composition database, which contains food composition values from the U.S. Department of Agriculture, supplemented by other data sources (U.S. Department of Agriculture ARS. USDA National Nutrient Database for Standard Reference, Release 14, 5R14; 2001). All nutrients were adjusted for total energy intake using the nutrient residuals method (Willett, Am. J. Clin. Nutr. 45:354-360, 1987). Mean nutrient intakes from the 1st and 2nd trimesters were used as the exposure in the analyses. If a participant only completed one FFQ, then nutrients calculated from that questionnaire were taken as the exposure of interest. One thousand one hundred and thirty-five (88.0%) of the 1,290 participants completed both FFQs, 96 (7.4%) completed the first trimester FFQ only, and 59 (4.6%) completed the second trimester FFQ only.
(§4) We ascertained the wheeze outcomes from questions from the First Year and Second Year Questionnaires: “since your child was born/since your child was […], has he/she ever had wheezing (or whistiling in the chest)?” “Any wheeze” was defined as a positive response to the question at either the first or second year questionnaire. “Recurrent wheeze” was defined as positive responses to the questions in both the first and second year questionnaires. […] “Respiratory infections” was defined as positive responses to one of three questions: “since your child was born/12 months old, have you been told by a health care professional (such as a doctor, physician assistant, or nurse practitioner) that your child has: (a) bronchiolitis; (b) pneumonia; (c) bronchitis, croup, or any other respiratory infection?” on either the first or second year questionnaires. […]

Assay [3] deals with any wheeze in the first 2 yrs. As to the kind of experiment: Project Viva antioxidant study: maternal intake and any wheeze in the first 2 yrs. The following applies: for Any wheeze in the first 2 yrs, Univariate Model OR (95% CI) / Any wheeze in the first 2 yrs, Multivariable Model OR (95% CI): including supplements; for Association of total maternal intake with any wheeze in univariable models: total intakes; for Any Wheeze, Foods Only OR / Any Wheeze, Supplements Only OR: univariate; for Any Wheeze, Foods Only OR: intake from foods only; for Any Wheeze, Supplements Only OR: intake from supplements only.
From the text: as §1, §2, §3, §4

In assay [4] the test system is respiratory infections in the 2-year old children. As to the kind of experiment: Project Viva antioxidant study: maternal intake and respiratory infections in 2-year old children.
From the text: as §1
We assessed maternal diet using semi-quantitative food-frequency questionnaires (FFQ) validated for use during pregnancy (Fawzi et al., Ann. Epidemiol. 14:754-762, 2004), and used in several of our previous studies of maternal diet and offspring outcomes (Oken et al., Am. J. Epidemiol. 160:774-783, 2004; Huh et al., Int. J. Epidemiol. 34:378-384, 2005; Gillman et al., Circulation 110:1990-1995, 2004). As noted above, the FFQ used at the 1st visit reflected intakes in the 1st trimester; the time referent was “during this pregnancy,” that is from the date of the last menstrual period until the assessment, at an average of about 10 weeks gestation. […] Also as noted above, the FFQ used at the 2nd visit (26 to 28 weeks of gestation) reflected intakes during the 2nd trimester; the time referent was “during the past 3 months.” The 2nd trimester instrument was the same as that for the 1st trimester except that we assessed use of vitamins/supplements as part of the self-completed FFQ. […]

Where [5] appears, read: 2nd vs 1st (lowest) quartile of maternal intake.
Setting [6] is: 2nd vs 1st (lowest) quartile of maternal intake, n = 1,038.
[7] abbreviates: 3rd vs 1st (lowest) quartile of maternal intake.
The mark [8] stands for this setting: 4th (highest) vs 1st (lowest) quartile of maternal intake.
Setting [9] is: 2nd vs 1st (lowest) quartile of maternal intake, calorie adjusted, n = 1,161.
Setting [10] is: 4th (highest) vs 1st (lowest) quartile of maternal intake, listed as zinc.
Setting [11] is: 4th (highest) vs 1st (lowest) quartile.
The mark [12] stands for this setting: 4th (highest) vs 1st (lowest) quartile of maternal intake, listed as vitamin E.

On to 25-Hydroxyvitamin D [25(OH)D], for which the “Association with lung function, bronchodilator response, or airway responsiveness” value in assay [1] (305 childhood asthmatics on inhaled corticosteroid) is on record as “no associations”. The “OR, severe asthma exacerbations over the course of the 4-year trial” value in assay [1] (children with 25(OH)D levels ≦30 ng/ml, on inhaled corticosteroid, adjusted for age, sex, height, baseline FEV1) stood at 1.76.
On to `O=C1O[C@H]([C@@H](O)CO)C(O)=C1O` [Vitamin C, ascorbic acid], for which the “Recurrent wheeze in the first 2 yrs, Multivariable Model OR (95% CI)” value is reported as 1.05 (0.62, 1.77) in assay [2] (setting [5]); 1.04 (0.60, 1.78) in assay [2] (setting [7]); 0.75 (0.41, 1.36) in assay [2] (setting [8]). The “Recurrent wheeze in the first 2 yrs, Univariate Model OR (95% CI)” value in assay [2] (setting [6]) was 1.02 (0.63, 1.65); in assay [2] (setting [7]) it was 0.85 (0.52, 1.40); in assay [2] (setting [8]), 0.56 (0.32, 0.97)^5. Also, the “Any wheeze in the first 2 yrs, Univariate Model OR (95% CI)” value (from here on “Any wheeze … Univariate Model OR (95% CI)”) in assay [3] (setting [9]) is recorded as 0.82 (0.58, 1.15); in assay [3] (setting [7]), 0.65 (0.46, 0.93)^5; in assay [3] (setting [8]) it was 0.67 (0.47, 0.94)^5. Besides, the “Any wheeze in the first 2 yrs, Multivariable Model OR (95% CI)” value is given as 0.93 (0.65, 1.35) in assay [3] (setting [5]); 0.84 (0.58, 1.22) in assay [3] (setting [7]); 0.79 (0.54, 1.15) in assay [3] (setting [8]). Further, the “Association of total maternal intake with any wheeze in univariable models” value (from here on “Association … in univariable models”) in assay [3] is listed as “associated with lower risks”. In addition, in assay [4], the “Association of total maternal intake with respiratory infections in the children” value (from here on “Association … in the children”) was “not associated”.
On to `[Zn]` [Zinc, zinc], for which the “Recurrent wheeze in the first 2 yrs, Multivariable Model OR (95% CI)” value is on record as 0.61 (0.35, 1.06) in assay [2] (setting [5]); 0.89 (0.53, 1.49) in assay [2] (setting [7]); 0.49 (0.27, 0.87) in assay [2] (setting [8]); 0.49 in assay [2] (setting [10]). Moreover, the “Recurrent wheeze in the first 2 yrs, Univariate Model OR (95% CI)” value in assay [2] (setting [6]) is 0.56 (0.34, 0.92); in assay [2] (setting [7]), 0.73 (0.46, 1.17); in assay [2] (setting [8]), 0.41 (0.24, 0.69)^5. Besides, the “Recurrent Wheeze, Foods Only OR” value in assay [2] (2nd vs 1st (lowest) quartile) is listed as 0.70; in assay [2] (3rd vs 1st (lowest) quartile), 0.65; in assay [2] (setting [11]), 0.68. Also, the “Recurrent Wheeze, Supplements Only OR” value in assay [2] (2nd vs 1st (lowest) quartile) is given as 0.94; in assay [2] (3rd vs 1st (lowest) quartile), 0.59; in assay [2] (setting [11]), 0.51. Further, the “Any wheeze … Univariate Model OR (95% CI)” value is given as 0.77 (0.55, 1.08) in assay [3] (setting [9]); 0.67 (0.47, 0.94)^5 in assay [3] (setting [7]); 0.49 (0.34, 0.70)^5 in assay [3] (setting [8]). Also, the “Any wheeze in the first 2 yrs, Multivariable Model OR (95% CI)” value in assay [3] (setting [5]) was 0.89 (0.61, 1.29); in assay [3] (setting [7]) it was 0.85 (0.59, 1.24); in assay [3] (setting [8]), 0.59 (0.41, 0.88)^5; in assay [3] (setting [10]), 0.59. The “Any Wheeze, Foods Only OR” value in assay [3] (2nd vs 1st (lowest) quartile) is recorded as 0.85; in assay [3] (3rd vs 1st (lowest) quartile) it was 0.60; in assay [3] (setting [11]) it was 0.60. In addition, the figures for the “Any Wheeze, Supplements Only OR” value in assay [3] (2nd vs 1st (lowest) quartile), in assay [3] (3rd vs 1st (lowest) quartile) and in assay [3] (setting [11]) were 0.98, 0.67 and 0.63, respectively. Further, the “Association … in univariable models” value in assay [3] is “associated with lower risks”. In addition, the “Association … in the children” value in assay [4] is “not associated”.
For the molecule vitamin E, the “Recurrent wheeze in the first 2 yrs, Multivariable Model OR (95% CI)” value in assay [2] (setting [5]) was 0.79 (0.47, 1.34); in assay [2] (setting [7]), 0.90 (0.54, 1.52); in assay [2] (setting [8]), 0.49 (0.27, 0.90)^5; in assay [2] (setting [12]), 0.49. Also, the “Recurrent wheeze in the first 2 yrs, Univariate Model OR (95% CI)” value in assay [2] (setting [6]) was 0.60 (0.37, 0.98); in assay [2] (setting [7]), 0.68 (0.43, 1.10); in assay [2] (setting [8]) it was 0.36 (0.20, 0.62)^5. Also, the entries for the “Recurrent Wheeze, Foods Only OR” value in assay [2] (2nd vs 1st (lowest) quartile), in assay [2] (3rd vs 1st (lowest) quartile) and in assay [2] (setting [11]) were 0.66, 0.58 and 0.61, respectively. The results for the “Recurrent Wheeze, Supplements Only OR” value in assay [2] (2nd vs 1st (lowest) quartile), in assay [2] (3rd vs 1st (lowest) quartile) and in assay [2] (setting [11]) were 0.83, 0.50 and 0.56, respectively. For the same molecule, the “Any wheeze … Univariate Model OR (95% CI)” value in assay [3] (setting [9]) is given as 0.71 (0.51, 1.01); in assay [3] (setting [7]), 0.67 (0.48, 0.95)^5; in assay [3] (setting [8]), 0.52 (0.36, 0.74)^5. The “Any wheeze in the first 2 yrs, Multivariable Model OR (95% CI)” value in assay [3] (setting [5]) is reported as 0.90 (0.62, 1.31); in assay [3] (setting [7]) it was 0.84 (0.58, 1.22); in assay [3] (setting [8]), 0.70 (0.48, 1.03); in assay [3] (setting [12]), 0.70. Further, the “Any Wheeze, Foods Only OR” value in assay [3] (2nd vs 1st (lowest) quartile) amounted to 0.75; in assay [3] (3rd vs 1st (lowest) quartile), 0.67; in assay [3] (setting [11]), 0.69. Besides, the entries for the “Any Wheeze, Supplements Only OR” value in assay [3] (2nd vs 1st (lowest) quartile), in assay [3] (3rd vs 1st (lowest) quartile) and in assay [3] (setting [11]) were 0.86, 0.70 and 0.63, respectively. For the same molecule, in assay [3], the “Association … in univariable models” value is recorded as “associated with lower risks”. Also, the “Association … in the children” value in assay [4] was “not associated”.
